Reference: patent US20250270227A1, “CAMPTOTHECIN DERIVATIVE, AND PHARMACEUTICAL COMPOSITION AND USE THEREOF” (SIMCERE ZAIMING PHARMACEUTICAL CO., LTD., priority 2021, published 2025)
pIC50: −log10 of the molar value. Where two headings read alike, the source gives them in different places.

Experiments:
CYP2D6 = CYP2D6 (Homo sapiens (Human), UniProt P10635); test: Inhibitory effect on CYP enzymatic activity in human liver microsomes; assay type: in vitro ADME
Protocol: (§1) The inhibition of CYP2C9, CYP2D6 and CYP3A4 enzymatic activities by the compounds of the present disclosure was determined by the following experimental method.
(§2) • 1. Human liver microsomes (Corning 452117) • 2. NADPH (Solarbio 705Y021) • 3. Positive substrates diclofenac (Sigma SLBV3438), dextromethorphan (TRC 3-EDO-175-1) and midazolam (Cerilliant FE01161704) • 4. Positive inhibitors sulfaphenazole (D. Ehrenstorfer GmbH 109012), quinidine (TCI WEODL-RE) and ketoconazole (Sigma 100M1091V) • 5. AB Sciex Triple Quad 5500 liquid chromatography-mass spectrometry
(§3) • 1. Preparation of 100 mM phosphate buffered saline (PBS): 7.098 g of Na2HPO4 was weighed, 500 mL of pure water was added and subjected to ultrasonic dissolution to obtain solution A. 3.400 g of KH2PO4 was weighed, 250 mL of pure water was added and subjected to ultrasonic dissolution to obtain solution B. Solution A was placed on a stirrer and solution B was slowly added until the pH value reached 7.4 to prepare 100 mM PBS buffer. • 2. Preparation of 10 mM NADPH solution with 100 mM PBS buffer. The 10 mM stock solution of the compound of the present disclosure was diluted with DMSO to obtain a 200× concentration of compound working solution (6000, 2000, 600, 200, 60, 20, 0 μM). The stock solution of positive inhibitors was diluted with DMSO to obtain a 200× concentration of positive inhibitor working solution (sulfaphenazole, 1000, 300, 100, 30, 10, 3, 0 μM; quinidine/ketoconazole, 100, 30, 10, 3, 1, 0.3, 0 μM). A 200× concentration of substrate working solution (120 μM diclofenac, 400 μM dextromethorphan, and 200 μM midazolam) was prepared with water, acetonitrile, or acetonitrile/methanol. • 3. 2 μL of 20 mg/ml liver microsome solution, 1 μL of substrate working solution, 1 μL of compound working solution and 176 μL of PBS buffer were taken, mixed uniformly, and pre-incubated in a 37° C. water bath for 15 min. To the positive control group was added 1 μL of sulfaphenazole, quinidine or ketoconazole working solution instead of compound working solution. A 10 mM NADPH solution was also pre-incubated in the 37° C. water bath for 15 min. After 15 min, 20 μL of NADPH was taken and added to each well to initiate the reaction, and the reaction was incubated at 37° C. for 5 min (CYP2C9), 20 min (CYP2D6) or 5 min (CYP3A4). Double samples were set for all incubation samples. After the corresponding time of incubation, 400 μL of glacial methanol containing internal standard was added to all samples to stop the reaction. The mixture was mixed uniformly by vortex and centrifuged at 3220 g for 40 min at 4° C. After the completion of the centrifugation, 100 μL of the supernatant was transferred to a loading plate, and 100 μL of ultrapure water was added and mixed uniformly for LC-MS/MS analysis.
(§4) The reduction in metabolite production in the administration group compared to the control group was compared by the ratio of sample peak area to internal standard peak area, and IC50 value was calculated by Excel XLfit 5.3.1.3.
(§5) The percent remaining activity was calculated by the following equation: […]

CYP2C9 = CYP2C9 (Homo sapiens (Human), UniProt P11712); test: as above; assay type: in vitro ADME
Protocol: as §1, §2, §3, §4, §5

CYP3A4 = CYP3A4 (Homo sapiens (Human), UniProt P08684); test: as above; assay type: in vitro ADME
Protocol: as §1, §2, §3, §4, §5

[1] = Metabolic stability in liver microsomes; assay type: in vitro ADME, mouse; conditions: for half-life at 1 μM: CD-1, mouse, microsomes
Protocol: The metabolic stability of the compounds of the present disclosure in liver microsomes was determined by the following experimental method.
• 1. Human liver microsomes (Corning 452117), Beagle dog liver microsomes (XENOTECH D1000), SD rat liver microsomes (XENOTECH R1000) and CD-1 mouse liver microsomes (XENOTECH M1000) • 2. Na2HPO4 (Tianjin Guangfu Fine Chemical Research Institute 20180130) • 3. KH2PO4 (Tianjin Guangfu Fine Chemical Research Institute 20180920) • 4. MgCl2 (Tianjin Guangfu Fine Chemical Research Institute 20191216) • 5. NADPH (Solarbio 1216C022) • 6. Positive control compound verapamil (Sigma MKBV4993V) • 7. AB Sciex API4000 liquid chromatography-mass spectrometry
• 1. Preparation of 100 mM phosphate buffered saline (PBS): 7.098 g of Na2HPO4 was weighed, 500 mL of pure water was added and subjected to ultrasonic dissolution to obtain solution A. 3.400 g of KH2PO4 was weighed, 250 mL of pure water was added and subjected to ultrasonic dissolution to obtain solution B. Solution A was placed on a stirrer and solution B was slowly added until the pH value reached 7.4 to prepare 100 mM PBS buffer. • 2. Preparation of reaction system
The reaction system was prepared according to the following table:
• 3. The reaction system was placed in a 37° C. water bath and pre-incubated for 10 min. 40 μL of 10 mM NADPH solution (NADPH was dissolved in 100 mM phosphate buffer) was added to the reaction system with the final concentration of NADPH being 1 mM. 40 μL of phosphate buffer was used instead of NADPH solution as negative control. The role of the negative control was to exclude the effect of the chemical stability of the compounds themselves. • 4. 4 μL of 100 μM compound of the present disclosure and the positive control compound verapamil were added to the reaction system to initiate the reaction, with the final concentration of the compound being 1 μM. • 5. After thorough mixing on a vortex oscillator, 50 μL of the incubated sample was taken out at 0.5 min, 15 min, 30 min, 45 min and 60 min, respectively, and the reaction was stopped with 200 μL of glacial acetonitrile containing internal standard. The sample was centrifuged at 3220 g for 45 min. […]
All the data was calculated by the Microsoft Excel software. The peak area was detected by extracting the ion chromatogram. The in vitro half-life (t1/2) of the compound was determined by performing linear fitting of the natural logarithm of elimination percent of the compound and time.
The in vitro half-life (t1/2) was calculated by means of the slope k: […]
The in vitro intrinsic clearance (unit: μL/min/mg protein) was calculated using the following equation: […]

[2] = pH 7.4, mouse liver microsomes 0.5 mg/mL, 1 μM compound, 1 mM NADPH, 37° C., read-out: Stability in mouse liver microsomes t1/2

CYP3A4, sequence (P08684 whole entry): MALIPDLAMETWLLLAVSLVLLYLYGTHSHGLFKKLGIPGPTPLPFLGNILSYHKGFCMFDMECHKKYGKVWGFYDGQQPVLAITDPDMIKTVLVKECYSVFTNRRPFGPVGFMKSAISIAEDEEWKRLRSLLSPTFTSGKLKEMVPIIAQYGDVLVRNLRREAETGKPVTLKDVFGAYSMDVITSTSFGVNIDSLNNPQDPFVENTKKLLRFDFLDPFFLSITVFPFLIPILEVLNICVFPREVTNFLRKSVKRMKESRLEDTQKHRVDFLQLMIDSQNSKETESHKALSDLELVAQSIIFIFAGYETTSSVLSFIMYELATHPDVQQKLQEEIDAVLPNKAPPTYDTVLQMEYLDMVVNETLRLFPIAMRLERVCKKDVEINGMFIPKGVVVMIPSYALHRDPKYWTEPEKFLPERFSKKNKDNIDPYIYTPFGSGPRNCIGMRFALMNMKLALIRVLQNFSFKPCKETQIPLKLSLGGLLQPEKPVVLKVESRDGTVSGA
CYP2D6, sequence (P10635 whole entry): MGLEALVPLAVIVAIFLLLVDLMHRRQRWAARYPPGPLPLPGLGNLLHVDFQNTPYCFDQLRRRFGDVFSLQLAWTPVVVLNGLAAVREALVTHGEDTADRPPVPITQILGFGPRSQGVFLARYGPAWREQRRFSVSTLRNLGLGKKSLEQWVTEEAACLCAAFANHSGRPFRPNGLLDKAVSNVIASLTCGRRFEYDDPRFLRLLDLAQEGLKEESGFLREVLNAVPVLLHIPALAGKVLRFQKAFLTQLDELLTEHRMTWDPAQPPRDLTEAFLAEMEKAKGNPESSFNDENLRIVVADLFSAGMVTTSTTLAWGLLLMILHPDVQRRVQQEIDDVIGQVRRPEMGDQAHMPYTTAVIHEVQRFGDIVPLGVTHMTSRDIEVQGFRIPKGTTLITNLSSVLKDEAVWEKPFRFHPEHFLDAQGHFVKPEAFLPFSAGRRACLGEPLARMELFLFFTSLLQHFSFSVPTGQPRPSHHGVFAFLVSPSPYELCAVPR
CYP2C9, sequence (P11712 whole entry): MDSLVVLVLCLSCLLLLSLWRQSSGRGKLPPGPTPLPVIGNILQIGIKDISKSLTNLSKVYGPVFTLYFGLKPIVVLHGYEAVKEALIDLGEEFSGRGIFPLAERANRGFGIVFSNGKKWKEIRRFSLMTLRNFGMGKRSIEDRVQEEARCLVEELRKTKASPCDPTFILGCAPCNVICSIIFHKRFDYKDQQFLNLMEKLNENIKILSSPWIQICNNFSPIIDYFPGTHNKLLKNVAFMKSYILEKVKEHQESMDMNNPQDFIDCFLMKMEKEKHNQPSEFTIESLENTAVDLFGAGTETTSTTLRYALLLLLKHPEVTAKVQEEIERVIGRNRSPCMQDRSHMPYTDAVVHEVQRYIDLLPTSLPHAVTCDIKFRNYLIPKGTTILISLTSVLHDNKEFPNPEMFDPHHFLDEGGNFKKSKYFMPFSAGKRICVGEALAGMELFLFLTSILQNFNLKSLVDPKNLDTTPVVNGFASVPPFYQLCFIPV

Structure (SMILES) | pIC50 (CYP2D6; read-out: Inhibition on CYP2D6 IC50, human liver microsomes, substrate dextromethorphan) | pIC50 (CYP2C9) | pIC50 (CYP3A4) | half-life at 1 μM [1, 2] [h] | pIC50 (CYP2D6) | pIC50 (CYP2C9; read-out: Inhibition on CYP2C9 IC50, human liver microsomes, substrate diclofenac) | pIC50 (CYP3A4; read-out: Inhibition on CYP3A4 IC50, human liver microsomes, substrate midazolam) | Stability in mouse liver microsomes t1/2 ([1]; mouse liver microsomes 0.5 mg/mL, 1 μM compound, 1 mM NADPH, 37° C.) [h] | half-life at 1 μM ([1]; pH 7.4) [h]
CC[C@@]1(O)C(=O)OCc2c1cc1n(c2=O)Cc2c-1nc1cc3c(cc1c2CNC(=O)C(O)C1CC1)OCO3 (single isomer, unassigned) [Compound 14-P1] | < 4.30 | < 4.30 | < 4.30 | 1.21 | – | – | – | – | –
CC[C@@]1(O)C(=O)OCc2c1cc1n(c2=O)Cc2c-1nc1cc3c(cc1c2CNC(=O)C(O)C1CC1)OCO3 (single isomer, unassigned) [Compound 14-P2] | – | – | – | – | < 4.30 | < 4.30 | < 4.30 | 1.08 | –
CC[C@@]1(O)C(=O)OCc2c1cc1n(c2=O)Cc2c-1nc1cc3c(c(F)c1c2CNC(=O)[C@@H](O)C1CC1)OCO3 (single isomer, unassigned) [Compound 37-P1] | – | < 4.30 | < 4.30 | – | < 4.30 | – | – | – | 2.23
[2H]C1([2H])Oc2cc3nc4c(c(CNC(=O)C(O)C5CC5)c3cc2O1)Cn1c-4cc2c(c1=O)COC(=O)[C@]2(O)CC (stereo partly drawn) [Compound 39, 2-cyclopropyl-N-(((S)-7-ethyl-7-hydroxy-8,11-dioxo-7,8,11,13-tetrahydro-10H-[1,3]dioxolo[4,5-g]pyrano[3′,4′:6,7]indolizino[1,2-b]quinolin-14-yl-2,2-d2)methyl)-2-hydroxyacetamide] | – | < 4.30 | < 4.30 | 4.47 | < 4.30 | – | – | – | –
